Measured values from patent US20130274342A1, “COMPOSITIONS AND METHODS FOR TREATING COUGH” (Cerecor, Inc., priority 2012, published 2013).

Tests used:
Caco-2 cells = assay: Memantine in vitro intestinal permeability (Caco-2 cells); type: in vitro ADME
[1] = absorption limited to the distal small bowel; cited from earlier work
[2] = test system: citric acid-induced cough; assay: Citric acid-induced cough in guinea pigs, oral memantine vs vehicle; type: in vivo; details: oral administration, dose response (FIG. 2)
[3] = Memantine ex vivo buccal permeability (porcine buccal mucosa); type: in vitro ADME
[4] = Stability of memantine in alkaline conditions, solution and lozenge (Example 5); type: physicochemical
Method: The stability of memantine is studied within a pH range in both solution and in a lozenge dosage form. It is determined that when memantine is included in a buffer solution at a pH 8.0 or higher, memantine degrades and/or precipitates out of solution. It is determined that in a solution with a pH of 8.0, only about 85.3 percent of memantine is recovered; in a solution with a pH of 9.0, only about 29.8 percent of memantine is recovered; and in a solution with a pH of 10.0, only about 0.7 percent of memantine is recovered. In a solution with a pH of 1.0, it is determined that 97.6 percent of memantine is recovered and thus memantine is determined to be stable. It is also determined that memantine is unstable in a lozenge dosage form when it is in contact with an alkalinizing agent. It is determined that when memantine and sodium hydroxide are added together in a lozenge dosage form, only about 40% to about 60% memantine is recovered, with the remaining memantine degrading and/or precipitating out during the lozenge preparation process. It is determined that when memantine and sodium carbonate are added together in a lozenge dosage form, only about 40% to about 60% memantine is recovered, with the remaining memantine degrading and/or precipitating out during the lozenge preparation process.

[5] = cited from earlier work
[6] = Pharmacokinetic evaluation of memantine with sodium hydroxide, menthol and optionally NH4Cl in male beagle dogs (Example 2); type: in vivo; details: 0.4 mg/kg, Route Oral
Method: The pharmacokinetics of memantine were evaluated after buccal administration in male beagle dogs. Memantine was formulated in water, 3.3 mg/mL sodium hydroxide in water, or 7.5 mg/mL sodium carbonate in water. All dogs received a 0.4 mg/kg dose of memantine. Plasma levels of memantine were determined by LC-MS/MS. Pharmacokinetic parameters were determined for the memantine plasma data.
For dosing, dogs were anesthetized with an IV injection of ketamine/diazepam, and maintained by isoflurane intubation during the buccal administration. The dosing solution was pipetted into a circular cylinder to concentrate the dosing solution on one area of the mucosa. At just prior to the 15 minute sample time point, the oral cavity was rinsed with 5 mL of water and dried with gauze. Immediately after the rinse, the 15 minute sample was collected.
The pharmacokinetics of memantine were evaluated after buccal administration in male beagle dogs using procedures similar to those used in Example 1, except that menthol or menthol and ammonium chloride where co-administered with the sodium hydroxide (Table 2). Table 2 provides a summary of pharmacokinetic findings, comparing memantine compositions containing an alkalinizing agent to increase local pH and a permeation enhancer (menthol), and optionally a urinary acidifying agent. […] Further addition of a urinary acidifying agent (e.g., NH4Cl) further reduces T1/2, indicating more rapid elimination of memantine.

Compound: CC12CC3CC(C)(C1)CC(N)(C3)C2 [memantine, 3,5-dimethyl-1-adamantanamine]
- permeability of memantine in Caco-2 cells (Caco-2 cells; increase in pH from pH 5.0 to 10.5 (FIG. 3)): gradually increases
- time to maximum plasma concentration (Tmax) [1]: 4 to 7 h
- efficacy on citric acid-induced cough relative to vehicle control [2]: dose-dependent antitussive effects
- increase in permeability of memantine in porcine buccal mucosa ([3]; increase in pH from 5.5 to 9.0 (FIG. 4)): over 100 fold
- increase in permeability of memantine in porcine buccal mucosa ([3]; increase in pH from 8.0 to 9.0 (FIG. 5)): about 3.8 fold
- memantine recovered ([4]; solution with a pH of 1.0): 97.6%
- memantine recovered ([4]; solution with a pH of 8.0): about 85.3%
- memantine recovered ([4]; solution with a pH of 9.0): about 29.8%
- memantine recovered ([4]; solution with a pH of 10.0): about 0.7%
- dissociation constant (pKa) [5]: ~10
- AUC0-∞ ([6]; 3.3 mg/ml sodium hydroxide + 5 mg/ml menthol): 126 ng·h/mL
- Cmax/Dose ([6]; 3.3 mg/ml sodium hydroxide + 5 mg/ml menthol + 20 mg/kg NH4Cl): 26.03
- AUC0-t ([6]; Control): 120 ng·h/mL

Compound: polysorbate 80
- effect as permeation enhancer on memantine Caco-2 permeability (Caco-2 cells; FIG. 6): ineffective
